Experimental data taken from the NIST ThermoML archive (doi:10.1021/acs.jced.7b00344).
Numbers after ± are expanded uncertainties.

Experiment: xn = mol fraction of the nth substance listed
Details: 101.3 kPa, Liquid; for viscosity: Capillary tube (Ostwald / Ubbelohde) method; for mass density: Pycnometric method

CC(=O)CCCCl [1-chloro-4-pentanone] + CC(=O)C1CC1
Details	mass density, 303.15 K [kg/m3]	mass density, 313.15 K [kg/m3]	mass density, 323.15 K [kg/m3]	mass density, 333.15 K [kg/m3]	viscosity, 303.15 K [mPa·s]	viscosity, 313.15 K [mPa·s]	viscosity, 323.15 K [mPa·s]	viscosity, 333.15 K [mPa·s]
x2 = 0	1051.3 ± 1.1	1041.1 ± 1.1	1031.2 ± 1.1	1020.8 ± 1.1	1.582 ± 0.033	1.318 ± 0.028	1.078 ± 0.023	0.9667 ± 0.02
x2 = 0.0998	1039.1 ± 1.1	1029.1 ± 1.1	1019.4 ± 1.1	1009.3 ± 1.1	1.427 ± 0.03	1.21 ± 0.026	1.03 ± 0.022	0.8933 ± 0.019
x2 = 0.2009	1026.1 ± 1.1	1016.3 ± 1.1	1006.7 ± 1.1	996.8 ± 1.1	1.223 ± 0.026	1.043 ± 0.022	0.9043 ± 0.019	0.7927 ± 0.017
x2 = 0.3004	1012.5 ± 1.1	1002.9 ± 1.1	993.4 ± 1.1	983.6 ± 1.1	1.135 ± 0.024	0.9766 ± 0.021	0.8507 ± 0.018	0.7484 ± 0.016
x2 = 0.4002	998 ± 1	988.5 ± 1.1	979.1 ± 1.1	969.5 ± 1.1	1.07 ± 0.023	0.9252 ± 0.02	0.8063 ± 0.017	0.7131 ± 0.015
x2 = 0.4999	982.8 ± 1.1	973.3 ± 1.1	963.9 ± 1.1	954.4 ± 1.1	0.955 ± 0.02	0.8296 ± 0.018	0.7322 ± 0.015	0.6517 ± 0.014
x2 = 0.5999	966.5 ± 1.1	957.1 ± 1.1	947.7 ± 1.1	938.3 ± 1.1	0.8757 ± 0.018	0.7715 ± 0.016	0.6787 ± 0.014	0.6086 ± 0.013
x2 = 0.6999	948.9 ± 1.1	939.7 ± 1.1	930.4 ± 1.1	921.1 ± 1.1	0.839 ± 0.018	0.7366 ± 0.016	0.649 ± 0.014	0.5818 ± 0.012
x2 = 0.7999	930.2 ± 1.1	921 ± 1	911.7 ± 1.1	902.6 ± 1.2	0.7363 ± 0.016	0.6493 ± 0.014	0.5783 ± 0.012	0.5207 ± 0.011
x2 = 0.8999	910.5 ± 1.1	901.1 ± 1.1	891.6 ± 1.1	882.4 ± 1.2	0.7027 ± 0.015	0.6216 ± 0.013	0.5513 ± 0.012	0.4968 ± 0.011
